# Source: US5349127A, “Expression of herbicide metabolizing cytochromes P450” (priority 1992, dated 1994)
# Experiments:
# [1] = test system: S. griseolus ATCC 11796; assay: Percent conversion of herbicides by cultures (Example 16); type: in vitro ADME, Streptomyces griseolus; conditions: 3.0 mg herbicide in 25 ml broth; 24 hours
# Protocol: (§1) Separate cultures (50 ml) inoculated with S. lividans C37, S. lividans transformed with pCAO200SU1-FeS-B#9, S. griseolus ATCC11796, S. griseolus PH2003 transformed with pIJ425, or S. ariseolus PH2003 transformed with pCS325 were cultured in sporulation broth for 18 hours at 30° C. with shaking. Each culture was then resuspended in 25 ml fresh sporulation broth and 3.0 mg herbicide added. In the case of cultures of S. griseolus ATCC11796, a second culture containing herbicide and 3.0 mg 10001 was also prepared. Each culture was reincubated for 24 hours, then an aliquot of the medium was withdrawn and analyzed by HPLC. The percent conversion of herbicide was determined.
# [2] = test system: S. griseolus ATCC 11796, 10001 added; assay: as above; type: in vitro ADME, Streptomyces griseolus; conditions: 3.0 mg herbicide and 3.0 mg 10001 in 25 ml broth; 24 hours
# Protocol: as §1
# [3] = test system: S. griseolus PH2003 pIJ425; assay: as above; type: in vitro ADME, Streptomyces griseolus; conditions: 3.0 mg herbicide in 25 ml broth; 24 hours
# Protocol: as §1
# [4] = test system: S. griseus PH4001; assay: Metabolism of 10001 by untransformed strain (Example 14); type: in vitro ADME, Streptomyces griseus; conditions: substrate 10001 120 ug/ml
# [5] = test system: Tomato seedlings (Lysopersicon esculentum cv. Pixie); assay: Tomato transplants in sulfonylurea-treated soil after dipping in water, YEME or S. lividans culture (Example 13); type: in vivo; conditions: for Mean value of visual ratings: 19 DAT
# Protocol: A 2 liter culture of S. lividans pCAO200SU1-FeS-B#9 was grown in YEME medium at 30° C. until the culture was in […] log phase of growth and the absorbance in a spectrophotometer at a wavelength of 600 nm was between about 1.0 and 1.3. Tomato seedlings (Lysopersicon esculentum cv. "Pixie") were seeded directly into soiless media, Oasis Wedges® (Smithers-Oasis, Kent, Ohio), fertilized with 500 ppm Peters'® fertilizer (20:19:18); and 300 ppm of iron was added weekly. As the tomato plants develop, roots ramify through the Oasis Wedges®. The tomato plants were transplanted to pots when they were 4 inches tail as follows.
# Five inch standard round pots (without holes) were filled with Sassafras sandy loam (pH 6.7, 0.8% OM) and an oasis cube. The contents of the each pot was sprayed, prior to transplanting the tomato plants, with either 10001, in 25% dry flowable composition (25 DF) or 10010, 75 DF at rates of 16, 32, 64, 125 or 250 grams of active ingredient per hectare (g ai/ha). The Oasis cube was then removed and replaced by another containing a transplant tomato plant dipped in either water (treatment A), YEME medium (treatment B)-or the culture of S. lividans pCAO200SU1-FeS-B#9 described above (treatment C). Six transplant tomato plants received each of the three treatments, and five transplant tomato plants (to serve as controls) received no treatment. The resulting tomato plants were grown in a greenhouse for 19 days and watered twice daily, after which they were evaluated for visual injury (100=complete kill, other numbers=percentage of injury relative to controls [subjectively determined], 0=no injury) with respect to the water dipped, no-herbicide control treatments. The plants were left in the greenhouse for one more week after which the fresh weights of the shoots of the plants were determined. The roots of the plants which received these treatments and controls were examined too.
# [6] = test system: S. lividans C37; assay: Metabolism of 10001 in growing culture, HPLC of supernatant (Example 4); type: in vitro ADME, Streptomyces lividans; conditions: 0.12 mg/ml 10001 in culture
structure (smiles),measurement,setting,value
"CCOC(=O)c1ccccc1S(=O)(=O)NC(=O)Nc1nc(Cl)cc(OC)n1 [compound 10001, N-[(4-chloro-6-methoxy-pyrimidin-2-yl)aminocarbonyl]-2-ethoxycarbonylbenzenesulfonamide]",Percent Conversion,[1],100%
same,Percent Conversion,[2],100%
same,Percent Conversion,[3],100%
same,concentration in supernatant,[4]; 1.0 h,370 µM
same,concentration in supernatant,[4]; 4.0 h,377 µM
same,Mean Shoot Fresh Weights,"[5]; 16 g ai/ha, Treatment A (water)",3.25 grams
same,Mean value of visual ratings,"[5]; 16 g ai/ha, Treatment A (water), scale 0-100",43.3
same,Mean Shoot Fresh Weights,"[5]; 16 g ai/ha, Treatment B (YEME)",2.35 grams
same,Mean value of visual ratings,"[5]; 16 g ai/ha, Treatment B (YEME), scale 0-100",51.7
same,Mean Shoot Fresh Weights,"[5]; 16 g ai/ha, Treatment C (pCAO200SU1-FeS-B#9)",3.1 grams
same,Mean value of visual ratings,"[5]; 16 g ai/ha, Treatment C (pCAO200SU1-FeS-B#9), scale 0-100",40
same,Mean Shoot Fresh Weights,"[5]; 32 g ai/ha, Treatment A (water)",2.49 grams
same,Mean value of visual ratings,"[5]; 32 g ai/ha, Treatment A (water), scale 0-100",68.3
same,Mean Shoot Fresh Weights,"[5]; 32 g ai/ha, Treatment B (YEME)",1.76 grams
same,Mean value of visual ratings,"[5]; 32 g ai/ha, Treatment B (YEME), scale 0-100",58.3
same,Mean Shoot Fresh Weights,"[5]; 32 g ai/ha, Treatment C (pCAO200SU1-FeS-B#9)",3.37 grams
same,Mean value of visual ratings,"[5]; 32 g ai/ha, Treatment C (pCAO200SU1-FeS-B#9), scale 0-100",50
same,"visual injury, treatment C versus treatments A or B","[5]; 64, 125, and 250 g ai/ha",significantly less injured
same,Mean Shoot Fresh Weights,"[5]; 64 g ai/ha, Treatment A (water)",1.37 grams
same,Mean value of visual ratings,"[5]; 64 g ai/ha, Treatment A (water), scale 0-100",66.7
same,Mean Shoot Fresh Weights,"[5]; 64 g ai/ha, Treatment B (YEME)",1.40 grams
same,Mean value of visual ratings,"[5]; 64 g ai/ha, Treatment B (YEME), scale 0-100",63.3
same,Mean Shoot Fresh Weights,"[5]; 64 g ai/ha, Treatment C (pCAO200SU1-FeS-B#9)",2.94 grams
same,Mean value of visual ratings,"[5]; 64 g ai/ha, Treatment C (pCAO200SU1-FeS-B#9), scale 0-100",43.3
same,"Shoot weight, dipped in pCAO200SU1-FeS-B#9 culture versus water or YEME",[5]; 125 g ai/ha,2-3 times
same,Mean Shoot Fresh Weights,"[5]; 125 g ai/ha, Treatment A (water)",0.80 grams
same,Mean value of visual ratings,"[5]; 125 g ai/ha, Treatment A (water), scale 0-100",90
same,Mean Shoot Fresh Weights,"[5]; 125 g ai/ha, Treatment B (YEME)",1.06 grams
same,Mean value of visual ratings,"[5]; 125 g ai/ha, Treatment B (YEME), scale 0-100",70
same,Mean Shoot Fresh Weights,"[5]; 125 g ai/ha, Treatment C (pCAO200SU1-FeS-B#9)",2.72 grams
same,Mean value of visual ratings,"[5]; 125 g ai/ha, Treatment C (pCAO200SU1-FeS-B#9), scale 0-100",50
same,"Shoot weight, dipped in pCAO200SU1-FeS-B#9 culture versus water or YEME",[5]; 250 g ai/ha,3-4 times greater
same,Mean Shoot Fresh Weights,"[5]; 250 g ai/ha, Treatment A (water)",0.63 grams
same,Mean value of visual ratings,"[5]; 250 g ai/ha, Treatment A (water), scale 0-100, 100 = complete kill",91.7
same,Mean Shoot Fresh Weights,"[5]; 250 g ai/ha, Treatment B (YEME)",0.40 grams
same,Mean value of visual ratings,"[5]; 250 g ai/ha, Treatment B (YEME), scale 0-100",81.7
same,Mean Shoot Fresh Weights,"[5]; 250 g ai/ha, Treatment C (pCAO200SU1-FeS-B#9)",2.41 grams
same,Mean value of visual ratings,"[5]; 250 g ai/ha, Treatment C (pCAO200SU1-FeS-B#9), scale 0-100",50.0
same,concentration in supernatant,[6]; 0 h,325 µM
same,concentration in supernatant,[6]; 24 h,320 µM
same,concentration in supernatant,[6]; 32 h,295 µM
same,concentration in supernatant,[6]; 48 h,281 µM
same,concentration in supernatant,[6]; 56 h,280 µM
